# Measured values as given in patent US4199579A, “Carbamates of 2-haloergolines and 2-haloergolenes and process for the preparation thereof” (priority 1975, dated 1980).
# Read-outs that look alike come from different tables or passages of the source.
# Assays:
# [1] = test system: asthma; conditions: pharmacological aspect; cited from earlier work
# [2] = test system: asthma; assay: Anti-asthmatic activity (Goose, Immunology, 16, 749, 1969); type: in vivo
# Text: (§1) Coming now to examining the anti-asthmatic pharmaceutical compositions it has been ascertained that the compound described as D-2-bromo-6-methyl-8beta-(morpholinocarbolynoxymethyl)-ergoline, corresponding to the formula (4) is endowed with quite special [drawing 81] which render it particularly recommendable for the therapy of asthma. The compound of the formula (4) has the empirical formula C21 H26 N3 O3 Br and a mol. wt. of 448.38. It gives, with mineral and organic acid of nontoxic and pharmacologically acceptable nature, a number of salt. These are soluble in water as well as in the physiological solutions. Such are for example the maleate C25 H30 N3 O7 Br, m.p. 213° C.-216° C., or the methanesulfonate C22 H30 N3 O6 BrS, m.p. 265° C.-266° C. and can be prepared according to the conventional methods by treating the compound (4) with the equivalent quantities of the acid in an aqueous medium or in appropriate organic solvents and their mixtures such as the alcohols, the ethers, the lower aliphatic ketones and others, taken individually or in appropriate mixtures with each other as will be detailed in the Examples hereinafter. The pharmacological activity of the compound of formula (4) is unfolded in appropriate assays, carried out on the test animals and is especially conspicuous in the following test runs:
# Goose, Sodium ED100 5 mg/kg intrav.
# [3] = test system: alpha-adrenergic receptors; assay: Antiadrenalic activity in vivo (b): protection of rats from the lethal effect of adrenaline; design: species or system rat; conditions: e.v.; Table 2
# [4] = test system: Myorelaxing activity; assay: Myorelaxing activity; type: in vivo
# Text: as §1, with “runs: […]” for “runs:”
# [5] = test system: Antidepressant activity; assay: Antidepressant activity; type: in vivo
# Text: as §1, with “runs: […]” for “runs:”
# [6] = test system: adrenergic activity; assay: Adrenergic activity of compound (4) in vitro; type: cell-based
# Text: All of these activities of an accessorial nature which unfold themselves at dosages which are considerably higher than those which cause the antiasthmatic effect, should be regarded as favorable factors in the sense that they improve the pharmacological pattern of the product, so that a possible therapeutic use of the product for patients suffering from asthma, […], can be forecast.
# [7] = test system: alpha-adrenergic receptors; assay: Antiadrenalic (antiadrenergic) activity in vitro (a): antagonism of the spasmogenic effect of adrenaline on the seminal vesicle; type: cell-based, guinea pig
# Text: More particularly the novel compounds display a vasodilatory activity on the peripheral circulatory system, an hypotensive activity and a spasmolytic effect on the gastrointestinal smooth muscles or a blocking activity towards the alpha-adrenergic receptors, both in "vitro" and in "vivo".
# (a) J. Brugger, Helv. Physiol. Pharmacol. Acta 3, 117 (1945)
# The product is antagonizing the spasmogenic effect of the adrenaline on the seminal vesicle of guinea pig at concentrations of between 0.1 and 10 pg/ml, as well as the vaso- constricting effect of the noradrenaline on the isolated and perfused caudal arteria of rat, at dosages of between 1 and 10 μg total. Furthermore it antagonizes the contracturing effect of adrenaline and noradrenaline on the "vas deferens" of guinea pig and rat, at concentrations of 0.1 to 10 ng/ml.
# [8] = test system: isolated ileum of guinea pig; assay: AntiBaCl2 activity in vitro (c): antagonism of the spasmogenic action of barium chloride on the isolated ileum; type: cell-based; conditions: Cavia porcellus, read-out: AntiBaCl2 (c) vitro EC50
# Experimental: (c) Magnus, Pflugers Arch.Ges.Physiol. 102, 123 (1904)
# The substance antagonizes the spasmogenic action of the barium chloride on the isolated ileum of guinea pig at dosages of between 1 and 5 μg/ml. […] On the isolated caudal arteria of rat, the compound II inhibits the vaso-constricting effect as caused by the perfusion with hyperpotassium Ringer's solution.
# [9] = Acute toxicity in mice; type: in vivo, mouse; conditions: mouse, in vivo, mouse
# Text: |Toxicity LD50 mice orally
Structure (SMILES),route by which the anti-asthmatic activity is manifested [1],"ED100 ([2]; iv, intrav.) [mg/kg]",Antiadrenalic activity (b) vivo ED50 [3] [mg/kg],ED100 ([4]; route not given) [mg/kg],myorelaxing activity in words ([4]; versus phenobarbital),"ED100 ([5]; po, orally) [mg/kg]",antidepressant activity in words ([5]; versus imipramine),adrenergic activity in vitro [6],Antiadrenalic activity (a) vitro EC50 [7] [µg/mL],EC50 [8] [µg/mL],dosage level of anti-asthmatic action compared with sodium chromoglycate ([2]; by the oral route),activity against asthmatic seizures in words ([2]; in vivo),"ED100 ([2]; po, orally) [mg/kg]","LD50 ([9]; iv, e.v., Table 2, read-out: DL50 e.v. in the mouse) [mg/kg]","LD50 ([9]; iv, mice, intrav., compound (4), read-out: Toxicity LD50 mice intrav.) [mg/kg]","LD50 ([9]; po, mice, orally, compound (4), read-out: Toxicity LD50 mice orally) [mg/kg]","selectivity ratio ([9]; margin of safety, read-out: multiple of the therapeutic dosage beyond which toxic effects become apparent)"
"O=C(O)c1cc(=O)c2c(OCC(O)COc3cccc4oc(C(=O)O)cc(=O)c34)cccc2o1 [Sodium chromoglycate, reference compound]","manifested only by the parentheral administration (intravenously), and, in man by inhalation of the dispersed powder",5,–,–,–,–,–,–,–,–,–,–,–,–,–,–,–
"CN1C[C@H](COC(=O)N2CCOCC2)C[C@@H]2c3cccc4[nH]c(Br)c(c34)C[C@H]21 [Example 16, D-2-bromo-6-methyl-8beta-(morpholinocarbonyloxymethyl)-ergoline]",–,–,0.0419,100,remarkable myorelaxing activity which is comparable to that of phenobarbital,5,considerable antidepressant activity which can be compared to that of imipramine,powerful adrenergic activity,0.0058,7.5,considerably lower dosage levels,both selectivity and a powerful activity against asthmatic seizures,0.25,20.5,18 to 22,180,> 1000
